Values joined by “and” are separate entries in the source; they are usually repeats but may differ in a detail not shown here. Identical values can stand only once. Active and inactive are the calls of the source. No cut-off for these calls is given here.
Assays:
[1] = Ability to inhibit the dibutyryl-cAMP-induced change of an immature glioma cell to a mature, differentiated astrocyte by in vitro astrocytoma assay at 0.1 ug/mL dose (Experiment #2); value may range from 0 to 5; type: functional, Mus musculus
[2] = Ability to inhibit the dibutyryl-cAMP-induced change of an immature glioma cell to a mature, differentiated astrocyte by in vitro astrocytoma assay at 0.1 ug/mL dose (Experiment #1); value may range from 0 to 5; type: functional, Mus musculus
[3] = Ability to inhibit the dibutyryl-cAMP-induced change of an immature glioma cell to a mature, differentiated astrocyte by in vitro astrocytoma assay at 10 ug/mL dose (Experiment #1); value may range from 91 to up; type: functional, Mus musculus
[4] = Ability to inhibit the dibutyryl-cAMP-induced change of an immature glioma cell to a mature, differentiated astrocyte by in vitro astrocytoma assay at 10 ug/mL dose (Experiment #2); value may range from 91 to up; type: functional, Mus musculus
[5] = Ability to inhibit the dibutyryl-cAMP-induced change of an immature glioma cell to a mature, differentiated astrocyte by in vitro astrocytoma assay at 1 ug/mL dose (Experiment #1); value may range from 51 to 70; type: functional, Mus musculus
[6] = Ability to inhibit the dibutyryl-cAMP-induced change of an immature glioma cell to a mature, differentiated astrocyte by in vitro astrocytoma assay at 1 ug/mL dose (Experiment #2); value may range from 51 to 70; type: functional, Mus musculus
[7] = test system: Mus musculus; assay: The percent increase in life span on P388 cells which were inoculated intraperitoneally in CD2F1 mice at 200 mg/kg dose placed at ranking order 1; type: functional; details: P388, ip, route intraperitoneal
[8] = test system: Mus musculus; assay: The percent increase in life span on P388 cells which were inoculated intraperitoneally in CD2F1 mice at 200 mg/kg dose placed at ranking order 3; type: functional; details: P388, ip, route intraperitoneal
[9] = test system: Mus musculus; assay: The percent increase in life span on P388 cells which were inoculated intraperitoneally in CD2F1 mice at 300 mg/kg dose placed at ranking order 4; type: functional; details: P388, ip, route intraperitoneal
[10] = test system: Mus musculus; assay: In vivo antitumor activity against the B16 melanoma cell line expressed as percent increase in life span at 100 mg/kg dose; type: functional
[11] = test system: Mus musculus; assay: In vivo antitumor activity against the B16 melanoma cell line expressed as percent increase in life span at 200 mg/kg dose; type: functional
[12] = test system: Mus musculus; assay: In vivo antitumor activity against the L1210 leukemia cell line expressed as percent increase in life span at 200 mg/kg dose; type: functional; details: dose 200 mg/kg
[13] = test system: Mus musculus; assay: In vivo antitumor activity against the M5076 reticulum cell sarcoma expressed as percent increase in life span at 500 mg/kg dose; type: functional
[14] = test system: Mus musculus; assay: The percent increase in life span on P388 cells which were inoculated intraperitoneally in CD2F1 mice at 400 mg/kg dose placed at ranking order 2; type: functional; details: P388, ip, route intraperitoneal
[15] = test system: Mus musculus; assay: Percent increase in life span (ILS) was measured on P388 cells which were inoculated intraperitoneally in CD2F1 mice; type: functional
[16] = Ability to inhibit the dibutyryl-cAMP-induced change of an immature glioma cell to a mature, differentiated astrocyte by in vitro astrocytoma assay at 100 ug/mL dose (Experiment #1); value may range from 16 to 30; type: functional, Mus musculus
[17] = Ability to inhibit the dibutyryl-cAMP-induced change of an immature glioma cell to a mature, differentiated astrocyte by in vitro astrocytoma assay at 100 ug/mL dose (Experiment #2); value may range from 16 to 30; type: functional, Mus musculus
[18] = Ability to inhibit the dibutyryl-cAMP-induced change of an immature glioma cell to a mature, differentiated astrocyte by in vitro astrocytoma assay at 10 ug/mL dose (Experiment #1); value may range from 6 to 15; type: functional, Mus musculus
[19] = Ability to inhibit the dibutyryl-cAMP-induced change of an immature glioma cell to a mature, differentiated astrocyte by in vitro astrocytoma assay at 10 ug/mL dose (Experiment #2); value may range from 0 to 5; type: functional, Mus musculus
[20] = Ability to inhibit the dibutyryl-cAMP-induced change of an immature glioma cell to a mature, differentiated astrocyte by in vitro astrocytoma assay at 1 ug/mL dose (Experiment #1); value may range from 0 to 5; type: functional, Mus musculus
[21] = test system: Mus musculus; assay: The percent increase in life span on P388 cells which were inoculated intraperitoneally in CD2F1 mice at 100 mg/kg dose placed at ranking order 4; type: functional; details: P388, ip, route intraperitoneal
[22] = test system: Mus musculus; assay: In vivo antitumor activity against the L1210 leukemia cell line expressed as percent increase in life span; IA means inactive; type: functional, organism-based
[23] = test system: Mus musculus; assay: In vivo antitumor activity against the M5076 reticulum cell sarcoma expressed as percent increase in life span; IA means inactive; type: functional, organism-based
[24] = test system: Mus musculus; assay: In vivo antitumor activity against the B16 melanoma cell line expressed as percent increase in life span; IA means inactive; type: functional, organism-based
[25] = test system: Mus musculus; assay: The percent increase in life span on P388 cells which were inoculated intraperitoneally in CD2F1 mice at 100 mg/kg dose placed at ranking order 1; type: functional; details: P388, ip, route intraperitoneal
[26] = test system: Mus musculus; assay: The percent increase in life span on P388 cells which were inoculated intraperitoneally in CD2F1 mice at 100 mg/kg dose placed at ranking order 2; type: functional; details: P388, ip, route intraperitoneal
[27] = Ability to inhibit the dibutyryl-cAMP-induced change of an immature glioma cell to a mature, differentiated astrocyte by in vitro astrocytoma assay at 1 ug/mL dose (Experiment #2); value may range from 0 to 5; type: functional, Mus musculus
[28] = test system: Mus musculus; assay: In vivo antitumor activity against the B16 melanoma cell line expressed as percent increase in life span at 1 mg/kg dose; type: functional
[29] = test system: Mus musculus; assay: In vivo antitumor activity against the M5076 reticulum cell sarcoma expressed as percent increase in life span at 4 mg/kg dose; type: functional
[30] = test system: Mus musculus; assay: Percent increase in life span (ILS) was measured on P388 cells which were inoculated intraperitoneally in CD2F1 mice at 8 mg/kg; type: functional; details: P388, ip, route intraperitoneal
[31] = test system: Mus musculus; assay: In vivo antitumor activity against the B16 melanoma cell line expressed as percent increase in life span at 10 mg/kg dose; type: functional
[32] = test system: Mus musculus; assay: In vivo antitumor activity against the B16 melanoma cell line expressed as percent increase in life span at 8 mg/kg dose; type: functional
[33] = test system: Mus musculus; assay: In vivo antitumor activity against the L1210 leukemia cell line expressed as percent increase in life span at 4 mg/kg dose; type: functional
[34] = test system: Mus musculus; assay: In vivo antitumor activity against the L1210 leukemia cell line expressed as percent increase in life span at 8 mg/kg dose; type: functional
[35] = test system: Mus musculus; assay: In vivo antitumor activity against the M5076 reticulum cell sarcoma expressed as percent increase in life span at 32 mg/kg dose; type: functional
[36] = test system: Mus musculus; assay: Percent increase in life span (ILS) was measured on P388 cells which were inoculated intraperitoneally in CD2F1 mice at 16 mg/kg; type: functional; details: P388, ip, route intraperitoneal
[37] = test system: Mus musculus; assay: In vivo antitumor activity against the B16 melanoma cell line determined as number of cured out of the number tested at 10 mg/kg dose ( out of 10 mice); type: functional
[38] = test system: Mus musculus; assay: In vivo antitumor activity against the B16 melanoma cell line determined as number of cured out of the number tested at 8 mg/kg dose ( out of 6 mice); type: functional
[39] = test system: Mus musculus; assay: In vivo antitumor activity against the L1210 leukemia cell line determined as number of cured out of the number tested at 8 mg/kg dose ( out of 8 mice); type: functional
[40] = test system: Mus musculus; assay: In vivo antitumor activity against the L1210 leukemia cell line determined as number of cured out of the number tested at 4 mg/kg dose ( out of 10 mice); type: functional
[41] = species: Mus musculus; assay: P388 activity determined as number of cured out of the number tested in 6 CD2F1 mice; type: functional

Question: For `COc1cc2c(c(OC)c1OC)-c1ccc(OC)c(=O)cc1[C@@H](NC(C)=O)CC2` [COLCHICINE], which Astrocyte reversal [1] is on record?
Answer: 0%

Question: What about the Astrocyte reversal [2] of the same molecule?
Answer: 0%

Question: And the Astrocyte reversal [3]?
Answer: 91%

Question: And the Astrocyte reversal [4]?
Answer: 91%

Question: And the Astrocyte reversal [5]?
Answer: 51%

Question: And the Astrocyte reversal [6]?
Answer: 51%

Question: For `CCOc1ccc(C(C)c2cc3c(cc2OC)OCO3)cc1` (stereo unspecified), which ILS at 200 mg/kg [7] is on record?
Answer: 78%

Question: What about the ILS at 200 mg/kg [8] of the same molecule?
Answer: 56%

Question: What about the ILS at 300 mg/kg [9] of the same molecule?
Answer: 31%

Question: And the ILS at 100 mg/kg [10]?
Answer: 29%

Question: What about the ILS at 200 mg/kg [11] of the same molecule?
Answer: 42%

Question: And the ILS [12]?
Answer: 50% and 24%

Question: And the ILS [13]?
Answer: 49% and 27%

Question: And the ILS at 400 mg/kg [14]?
Answer: 61%

Question: And the ILS [15]?
Answer: 78%

Question: With `COc1ccc(C(C)c2cc3c(cc2OC)OCO3)cc1` (stereo unspecified) as the molecule, how does the Astrocyte reversal [16] read?
Answer: 30%

Question: What about the Astrocyte reversal [17] of the same molecule?
Answer: 30%

Question: And the Astrocyte reversal [18]?
Answer: 15%

Question: What about the Astrocyte reversal [19] of the same molecule?
Answer: 5%

Question: And the Astrocyte reversal [20]?
Answer: 5%

Question: What about the ILS at 100 mg/kg [21] of the same molecule?
Answer: 53%

Question: And the ILS at 200 mg/kg [8]?
Answer: 74%

Question: And the ILS [22]?
Answer: inactive

Question: And the ILS [23]?
Answer: inactive

Question: And the ILS [24]?
Answer: inactive

Question: And the ILS [15]?
Answer: 78%

Question: And the ILS at 100 mg/kg [25]?
Answer: 78%

Question: And the ILS at 100 mg/kg [26]?
Answer: 76%

Question: What about the Astrocyte reversal [27] of the same molecule?
Answer: 5%

Question: Which results are given for `COc1cc([C@@H]2c3cc4c(cc3[C@H](O)[C@H]3COC(=O)[C@H]23)OCO4)cc(OC)c1OC` [PODOFILOX]?
Answer: ILS at 1 mg/kg [28]: 28%; ILS [22]: inactive; ILS at 4 mg/kg [29]: 46%; ILS [24]: inactive; ILS at 8 mg/kg [30]: 52%

Question: With `COc1cc([C@@H]2c3cc4c(cc3[C@@H](O[C@@H]3O[C@@H]5CO[C@@H](C)O[C@H]5[C@H](O)[C@H]3O)[C@H]3COC(=O)[C@H]23)OCO4)cc(OC)c1O` [ETOPOSIDE] as the molecule, how does the ILS at 10 mg/kg [31] read?
Answer: > 185%

Question: What about the ILS at 8 mg/kg [32] of the same molecule?
Answer: > 176%

Question: And the ILS at 4 mg/kg [33]?
Answer: 118%

Question: What about the ILS at 8 mg/kg [34] of the same molecule?
Answer: > 511%

Question: What about the ILS at 32 mg/kg ([35]; Mus musculus, M5076, dose 32 mg/kg) of the same molecule?
Answer: 87%

Question: And the ILS ([35]; dose 32 mg/kg)?
Answer: 72%

Question: What about the ILS at 16 mg/kg [36] of the same molecule?
Answer: 219%

Question: And the No. of cures [37]?
Answer: 6

Question: What about the No. of cures [38] of the same molecule?
Answer: 3

Question: And the No. of cures [39]?
Answer: 4

Question: And the No. of cures [40]?
Answer: 2

Question: And the No. of cures [41]?
Answer: 3

Reference: ChEMBL document CHEMBL1123608, “In vivo antitumor activity of 6-benzyl-1,3-benzodioxole derivatives against the P388, L1210, B16, and M5076 murine models” (1987)
